Some test systems named below: HCT-116 colon; SW-620 colon; OVCAR-8 ovarian; OVCAR-3 ovarian; ACHN renal; MALME-3M melanoma; SNB-75 CNS; NCI-H460 lung; SN12C renal; DU-145 prostate.
What all share (assay): NCI anticancer screen, dose series, 48 h

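48-hour exposure; five concentrations; linearly interpolated endpoints. GI50 = concentration required for 50% inhibition of growth. TGI: total growth inhibition.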 Where only a bound is given, the exact number is not on record here.

`N#Cc1ccc2c(c1)C(=O)c1c-2n(CCCCl)c(=O)c2cc([N+](=O)[O-])ccc12`: the GI50 in the test on HCT-116 colon was 1.82 µM; in the test with SW-620 colon, 0.801 µM; in the test with OVCAR-8 ovarian it was 20.6 µM; in the test on OVCAR-3 ovarian, 8.77 µM; with ACHN renal, 1.91 µM; with MALME-3M melanoma, 24 µM. The GI50 in the test on SNB-75 CNS was 3.51 µM; with NCI-H460 lung, 0.395 µM; in the test with SN12C renal, 5.93 µM; in the test with DU-145 prostate, 2.74 µM. The TGI with HCT-116 colon is > 100 µM; in the test with SW-620 colon it was > 100 µM; in the test on OVCAR-8 ovarian, > 100 µM; with OVCAR-3 ovarian, > 100 µM; in the test with ACHN renal, 6.59 µM; with MALME-3M melanoma it was > 100 µM. Further, the TGI is 11.5 µM in the test on SNB-75 CNS, > 100 µM in the test with NCI-H460 lung, > 100 µM in the test on SN12C renal and 23.9 µM in the test on DU-145 prostate.

Turning to `CC(=O)N1C/C(=C/c2ccc(Cl)cc2)C(=O)/C(=C/c2ccc(Cl)cc2)C1`, the GI50 in the test on HCT-116 colon was 0.202 µM; in the test with SW-620 colon, 0.297 µM; in the test on OVCAR-8 ovarian, 0.463 µM; in the test on OVCAR-3 ovarian, 0.583 µM; in the test on ACHN renal it was 0.769 µM; with MALME-3M melanoma, 1.94 µM. Moreover, the GI50 with SNB-75 CNS is 0.963 µM; in the test with NCI-H460 lung, 1.32 µM; in the test with SN12C renal, 0.72 µM; in the test with DU-145 prostate it was 1.13 µM. Besides, the TGI is 0.465 µM with HCT-116 colon; 0.981 µM with SW-620 colon; 2.17 µM with OVCAR-8 ovarian; 1.79 µM in the test on OVCAR-3 ovarian; 2.05 µM in the test on ACHN renal; 4.14 µM in the test on MALME-3M melanoma. The TGI was 2.64 µM in the test on SNB-75 CNS, 4.22 µM in the test on NCI-H460 lung, 2.24 µM in the test on SN12C renal and 2.62 µM with DU-145 prostate.

Turning to `C=C1C(=O)O[C@H]2[C@H]1CC/C(COC(=O)C(=O)c1cn(C)c3ccc(Cl)cc13)=C\CC[C@@]1(C)O[C@@H]21`, the GI50 was 1.24 µM in the test on HCT-116 colon; 0.857 µM with SW-620 colon; 2.1 µM in the test with OVCAR-8 ovarian; 0.315 µM in the test on OVCAR-3 ovarian; 1.07 µM in the test with ACHN renal; 1.74 µM in the test on MALME-3M melanoma. Further, the GI50 in the test with SNB-75 CNS was 1.61 µM; in the test with NCI-H460 lung, 2.28 µM; with SN12C renal, 1.39 µM; in the test with DU-145 prostate it was 1.69 µM. Moreover, the TGI in the test with HCT-116 colon amounted to 2.69 µM; with SW-620 colon, 10.9 µM; in the test with OVCAR-8 ovarian, 10.1 µM; in the test with OVCAR-3 ovarian it was 1.03 µM; in the test on ACHN renal, 2.5 µM; with MALME-3M melanoma, 4.28 µM. Moreover, the TGI in the test on SNB-75 CNS worked out at 3.8 µM; in the test on NCI-H460 lung, 6.75 µM; in the test on SN12C renal it was 4.71 µM; with DU-145 prostate, 3.63 µM.

Regarding `CS(=O)(=O)CCNCc1ccc(-c2ccc3ncnc(Nc4ccc(OCc5ccccc5)c(Br)c4)c3c2)o1`, the GI50 is 5.26 µM with HCT-116 colon; 5.29 µM in the test on SW-620 colon; 9.62 µM with OVCAR-8 ovarian; 9.22 µM in the test on OVCAR-3 ovarian; 1.13 µM in the test with ACHN renal; 5.37 µM with MALME-3M melanoma. The GI50 in the test with SNB-75 CNS is 10.1 µM; in the test on NCI-H460 lung it was 7.87 µM; in the test with SN12C renal it was 11.9 µM; in the test on DU-145 prostate, 12.6 µM. Besides, the TGI in the test on HCT-116 colon was 11.8 µM; with SW-620 colon it was 11.1 µM; with OVCAR-8 ovarian, > 25 µM; with OVCAR-3 ovarian, > 25 µM; with ACHN renal, > 25 µM; with MALME-3M melanoma, 10.4 µM. Also, the TGI in the test on SNB-75 CNS, in the test with NCI-H460 lung, in the test with SN12C renal and with DU-145 prostate was > 25 µM each time.

Take `Cc1ccc2c(-c3ccnc(Nc4ccccc4)n3)c(-c3ccc(F)cc3)nn2n1`: the GI50 in the test on HCT-116 colon was 4.48 µM; with SW-620 colon, 8.37 µM; in the test with OVCAR-8 ovarian, 9.79 µM; in the test with OVCAR-3 ovarian, 4.98 µM; with ACHN renal, 1.26 µM; with MALME-3M melanoma it was 13.9 µM. In addition, the GI50 in the test with SNB-75 CNS is > 8.35 µM; with NCI-H460 lung it was 5.24 µM; in the test on SN12C renal, 4.85 µM; with DU-145 prostate, 7.59 µM. Also, the TGI in the test on HCT-116 colon is 14.6 µM; in the test with SW-620 colon, > 25 µM; in the test with OVCAR-8 ovarian, > 25 µM; with OVCAR-3 ovarian it was > 22.8 µM; with ACHN renal it was > 25 µM; in the test with MALME-3M melanoma it was > 25 µM. Besides, the TGI in the test with SNB-75 CNS is > 25 µM; in the test on NCI-H460 lung it was 15.1 µM; in the test with SN12C renal, > 25 µM; in the test on DU-145 prostate, > 25 µM.

As to `C=C(NC(=O)C(=C)NC(=O)c1csc(C2=NC3c4csc(n4)C4NC(=O)c5csc(n5)C(C(C)(O)C(C)O)NC(=O)C5CSC(=N5)C(=CC)NC(=O)C(C(C)O)NC(=O)c5csc(n5)C3(CC2)NC(=O)C(C)NC(=O)C(=C)NC(=O)C(C)NC(=O)C(C(C)CC)NC2C=Cc3c(C(C)O)cc(nc3C2O)C(=O)OC4C)n1)C(N)=O` (stereo not given), the GI50 with HCT-116 colon is 1.74 µM; with SW-620 colon it was 2.73 µM; with OVCAR-8 ovarian, 7.02 µM; in the test on OVCAR-3 ovarian, 6.59 µM; in the test with ACHN renal it was 8.25 µM; in the test with MALME-3M melanoma, 3.14 µM. Besides, the GI50 with SNB-75 CNS is 8.12 µM; in the test on NCI-H460 lung, 17 µM; in the test with SN12C renal it was 19.6 µM; in the test with DU-145 prostate it was 58.7 µM. The TGI in the test on HCT-116 colon is 4.09 µM; with SW-620 colon, > 100 µM; in the test on OVCAR-8 ovarian, > 100 µM; in the test with OVCAR-3 ovarian it was > 100 µM; with ACHN renal it was > 100 µM; with MALME-3M melanoma it was > 100 µM. In addition, the TGI in the test on SNB-75 CNS was 83.7 µM; in the test with NCI-H460 lung, > 100 µM; in the test with SN12C renal, > 100 µM; with DU-145 prostate, > 100 µM.

With `COc1cc2ncn(-c3cc(O[C@@H](C)c4ccccc4Cl)c(C(N)=O)s3)c2cc1OC`, the GI50 in the test on HCT-116 colon was 1.01 µM; with SW-620 colon, 0.612 µM; with OVCAR-8 ovarian, 1.45 µM; in the test on OVCAR-3 ovarian it was 0.513 µM; in the test on ACHN renal, 2.89 µM; in the test with MALME-3M melanoma, 13.7 µM. Also, the GI50 with SNB-75 CNS is 3.86 µM; in the test with NCI-H460 lung it was 0.949 µM; with SN12C renal, 3.05 µM; in the test with DU-145 prostate, 0.727 µM. For the same molecule, the TGI in the test on HCT-116 colon was > 25 µM; in the test on SW-620 colon it was > 25 µM; in the test with OVCAR-8 ovarian it was > 25 µM; with OVCAR-3 ovarian it was > 17.4 µM; with ACHN renal it was > 25 µM; with MALME-3M melanoma, > 25 µM. For the same molecule, the TGI in the test with SNB-75 CNS, with NCI-H460 lung, in the test with SN12C renal and in the test with DU-145 prostate was > 25 µM throughout.

For the origin of these results see PubChem BioAssay (NCI).
